The experiment concerns normal chow-fed C57BL/6J male mice. Nature of the experiment: Effect on food intake in normal mice (HM-2 automated monitoring). In kind it is in vivo, mouse. Conditions: for Accumulated FI at 6h: 300 nmol/kg s.c. once, light phase 0-6 h, modified protocol (food access re-opened 2 h after dosing); for Effects on FI during the dark period: modified protocol, 0-24 h monitoring (FIG. 2B). The protocol: Normal chow-fed C57BL/6J male mice were used. The mice were kept in an automated food- and water-intake monitoring system (HM-2) which allows automated on-line measurements of accumulated food intake (FI) and other parameters. Food intake was monitored by the HM-2 system up to 24 h after dosing. The mice were kept 6 per cage, and each dosing group consisted of 6 animals.
In the initial experimental set-up with ghrelin as test compound, animals were allowed free access to food directly after treatment, and the resulting data for food intake are shown in FIG. 1A herein (vide infra).
In order to further investigate the “duration of action” of ghrelin and the other test compounds a new protocol was defined. In the modified protocol the gate to the food chambers was closed prior to dosing with vehicle or test compound and was re-opened 2 hours thereafter. The resulting data for food intake following dosing with ghrelin or vehicle are summarized in FIG. 1B (vide infra), while the corresponding data for food intake following dosing with each of the of the other four test compounds. (Compound 16, 22, 23 or 43 of the invention) or with vehicle are summarized in FIG. 2A (data for monitoring up to 6 hours after dosing) and FIG. 2B (data for monitoring up to 24 hours after dosing).

The record followed here is patent publication US9657062B2, “Ghrelin analogues” (Zealand Pharma A/S, priority 2012, dated 2017).

Where a SMILES comes first, the peptide text is derived from it. [ ]: non-standard residue; d: D form. The star is where a group is joined. Octanoyl = CCCCCCCC(=O)*; Dap = NC[C@H](N)C(=O)O; Octyl = CCCCCCCC*

Turning to `CCCCCCCCCCCCCCCC(=O)NCCCC[C@H](NC(=O)[C@H](CO)NC(=O)[C@H](CCC(=O)O)NC(=O)[C@H](CCCCN)NC(=O)[C@H](CCCNC(=N)N)NC(=O)[C@H](CCC(N)=O)NC(=O)[C@H](CCC(N)=O)NC(=O)[C@@H](NC(=O)[C@H](CCCNC(=N)N)NC(=O)[C@H](CCC(N)=O)NC(=O)[C@H](Cc1c[nH]cn1)NC(=O)[C@H](CCC(=O)O)NC(=O)[C@@H]1CCCN1C(=O)[C@H](CO)NC(=O)[C@H](CC(C)C)NC(=O)[C@H](Cc1ccccc1)NC(=O)[C@H](COCCCCCCCC)NC(=O)[C@H](CO)NC(=O)[C@@H]1CCCN1)C(C)C)C(=O)N[C@@H](CCCCN)C(=O)N1CCC[C@H]1C(=O)N1CCC[C@H]1C(=O)N[C@@H](C)C(=O)N[C@@H](CCCCN)C(=O)N[C@@H](CC(C)C)C(=O)N[C@@H](CCC(N)=O)C(=O)N1CCC[C@H]1C(=O)N[C@@H](CCCNC(=N)N)C(=O)O` [Compound 16], the “Accumulated FI at 6h” value amounted to 0.65 ± 0.1 g. With `CCCCCCCCCCCCCCCC(=O)N[C@@H](CCC(=O)NCCCC[C@H](NC(=O)[C@H](CO)NC(=O)[C@H](CCC(=O)O)NC(=O)[C@H](CCCCN)NC(=O)[C@H](CCCNC(=N)N)NC(=O)[C@H](CCC(N)=O)NC(=O)[C@H](CCC(N)=O)NC(=O)[C@@H](NC(=O)[C@H](CCCNC(=N)N)NC(=O)[C@H](CCC(N)=O)NC(=O)[C@H](Cc1c[nH]cn1)NC(=O)[C@H](CCC(=O)O)NC(=O)[C@@H]1CCCN1C(=O)[C@H](CO)NC(=O)[C@H](CC(C)C)NC(=O)[C@H](Cc1ccccc1)NC(=O)[C@H](COCCCCCCCC)NC(=O)[C@H](CO)NC(=O)[C@@H]1CCCN1)C(C)C)C(=O)N[C@@H](CCCCN)C(=O)N1CCC[C@H]1C(=O)N1CCC[C@H]1C(=O)N[C@@H](C)C(=O)N[C@@H](CCCCN)C(=O)N[C@@H](CC(C)C)C(=O)N[C@@H](CCC(N)=O)C(=O)N1CCC[C@H]1C(=O)N[C@@H](CCCNC(=N)N)C(N)=O)C(=O)O` [Compound 43], the “Accumulated FI at 6h” value was found to be 0.37 ± 0.14 g. With `CCCCCCCC(=O)OC[C@H](NC(=O)[C@H](CO)NC(=O)CN)C(=O)N[C@@H](Cc1ccccc1)C(=O)N[C@@H](CC(C)C)C(=O)N[C@@H](CO)C(=O)N1CCC[C@H]1C(=O)N[C@@H](CCC(=O)O)C(=O)N[C@@H](Cc1c[nH]cn1)C(=O)N[C@@H](CCC(N)=O)C(=O)N[C@@H](CCCNC(=N)N)C(=O)N[C@H](C(=O)N[C@@H](CCC(N)=O)C(=O)N[C@@H](CCC(N)=O)C(=O)N[C@@H](CCCNC(=N)N)C(=O)N[C@@H](CCCCN)C(=O)N[C@@H](CCC(=O)O)C(=O)N[C@@H](CO)C(=O)N[C@@H](CCCCN)C(=O)N[C@@H](CCCCN)C(=O)N1CCC[C@H]1C(=O)N1CCC[C@H]1C(=O)N[C@@H](C)C(=O)N[C@@H](CCCCN)C(=O)N[C@@H](CC(C)C)C(=O)N[C@@H](CCC(N)=O)C(=O)N1CCC[C@H]1C(=O)N[C@@H](CCCNC(=N)N)C(=O)O)C(C)C` [Compound 1, reference compound], the “Effect on food intake (FI)” value (300 nmol/kg s.c., access to food delayed for 2 h after administration (FIG. 1B)) was “essentially lost”. Further, the “Food intake (FI) compared to PBS treated controls” value (300 nmol/kg s.c., free access to food immediately after dosing (FIG. 1A)) is recorded as “increased FI”. In the case of `CCCCCCCC(=O)NC[C@H](NC(=O)[C@H](CO)NC(=O)[C@@H]1CCCN1)C(=O)N[C@@H](Cc1ccccc1)C(=O)N[C@@H](CC(C)C)C(=O)N[C@@H](CO)C(=O)N1CCC[C@H]1C(=O)N[C@@H](Cc1ccc(O)cc1)C(N)=O` [Compound 42, H-PS-Dap(N-octanoyl)-FLSPY-NH2] (H-PS[Dap](Octanoyl)FLSPY-NH2), the “Accumulated FI at 6h” value was determined as 0.2 ± 0.08 g. With `CCCCCCCC(=O)NC[C@H](NC(=O)[C@H](CO)NC(=O)[C@@H]1CCCN1)C(=O)N[C@@H](Cc1ccccc1)C(=O)N[C@@H](CC(C)C)C(=O)N[C@@H](CO)C(=O)N1CCC[C@H]1C(=O)N[C@@H](CCC(=O)O)C(=O)N[C@@H](Cc1c[nH]cn1)C(=O)N[C@@H](CCC(N)=O)C(=O)N[C@@H](CCCNC(=N)N)C(=O)N[C@H](C(=O)N[C@@H](CCC(N)=O)C(=O)N[C@@H](CCC(N)=O)C(=O)N[C@@H](CCCNC(=N)N)C(=O)N[C@@H](CCCCN)C(=O)N[C@@H](CCC(=O)O)C(=O)N[C@@H](CO)C(=O)N[C@@H](CCCCN)C(=O)N[C@@H](CCCCN)C(=O)N1CCC[C@H]1C(=O)N1CCC[C@H]1C(=O)N[C@@H](C)C(=O)N[C@@H](CCCCN)C(=O)N[C@@H](CC(C)C)C(=O)N[C@@H](CCC(N)=O)C(=O)N1CCC[C@H]1C(=O)N[C@@H](CCCNC(=N)N)C(N)=O)C(C)C` [Compound 22], the “Accumulated FI at 6h” value stood at 1.87 ± 0.23 g. The “Effects on FI during the dark period” value (300 nmol/kg s.c.) is reported as “significant effects”. `CCCCCCCCOC[C@H](NC(=O)[C@H](CO)NC(=O)[C@@H]1CCCN1)C(=O)N[C@@H](Cc1ccccc1)C(=O)N[C@@H](CC(C)C)C(=O)N[C@@H](CO)C(=O)N1CCC[C@H]1C(=O)N[C@@H](CCC(=O)O)C(=O)N[C@@H](Cc1c[nH]cn1)C(=O)N[C@@H](CO)C(=O)N[C@@H](CCCNC(=N)N)C(=O)N1CCC[C@H]1C(=O)N[C@@H](CO)C(=O)N[C@@H](CO)C(=O)N[C@@H](CCCNC(=N)N)C(=O)N1CCC[C@H]1C(=O)N[C@@H](CCC(=O)O)C(=O)N[C@@H](CO)C(=O)N[C@@H](CO)C(=O)N[C@@H](CO)C(=O)N1CCC[C@H]1C(=O)N1CCC[C@H]1C(=O)N[C@@H](C)C(=O)N[C@@H](CCCCN)C(=O)N[C@@H](CC(C)C)C(=O)N[C@@H](CO)C(=O)N1CCC[C@H]1C(=O)N[C@@H](CCCNC(=N)N)C(N)=O` [Compound 50] (H-PSS(Octyl)FLSPEHSRPSSRPESSSPPAKLSPR-NH2): the “Accumulated FI at 6h” value was 0.19 ± 0.05 g. Take `CCCCCCCCOC[C@H](NC(=O)[C@H](CO)NC(=O)[C@@H]1CCCN1)C(=O)N[C@@H](Cc1ccccc1)C(=O)N[C@@H](CC(C)C)C(=O)N[C@@H](CO)C(=O)N1CCC[C@H]1C(=O)N[C@@H](CCC(=O)O)C(=O)N[C@@H](Cc1c[nH]cn1)C(=O)N[C@@H](CO)C(=O)N[C@@H](CCCNC(=N)N)C(=O)N1CCC[C@H]1C(=O)N[C@@H](CO)C(=O)N[C@@H](CO)C(=O)N[C@@H](CCCNC(=N)N)C(N)=O` [Compound 48] (H-PSS(Octyl)FLSPEHSRPSSR-NH2): the “Accumulated FI at 6h” value amounted to 0 ± 0 g. Still for that read-out and setting: the result for `CCCCCCCCOC[C@H](NC(=O)[C@H](CO)NC(=O)[C@@H]1CCCN1)C(=O)N[C@@H](Cc1ccccc1)C(=O)N[C@@H](CC(C)C)C(=O)N[C@@H](CO)C(=O)N1CCC[C@H]1C(=O)N[C@@H](CCC(=O)O)C(=O)N[C@@H](Cc1c[nH]cn1)C(=O)N[C@@H](CO)C(=O)N[C@@H](CCCNC(=N)N)C(=O)N[C@H](C(=O)N[C@@H](CO)C(=O)N[C@@H](CO)C(=O)N[C@@H](CCCNC(=N)N)C(=O)N[C@@H](CCCCN)C(=O)N[C@@H](CCC(=O)O)C(=O)N[C@@H](CO)C(=O)N[C@@H](CO)C(=O)N[C@@H](CCCCN)C(=O)N1CCC[C@H]1C(=O)N1CCC[C@H]1C(=O)N[C@@H](C)C(=O)N[C@@H](CCCCN)C(=O)N[C@@H](CC(C)C)C(=O)N[C@@H](CO)C(=O)N1CCC[C@H]1C(=O)N[C@@H](CCCNC(=N)N)C(N)=O)C(C)C` [Compound 45] (H-PSS(Octyl)FLSPEHSRVSSRKESSKPPAKLSPR-NH2) reads 0.38 ± 0.13 g. With `CCCCCCCCOC[C@H](NC(=O)[C@H](CO)NC(=O)[C@@H]1CCCN1)C(=O)N[C@@H](Cc1ccccc1)C(=O)N[C@@H](CC(C)C)C(=O)N[C@@H](CO)C(=O)N1CCC[C@H]1C(=O)N[C@@H](CCC(=O)O)C(=O)N[C@@H](Cc1c[nH]cn1)C(=O)N[C@@H](CO)C(=O)N[C@@H](CCCNC(=N)N)C(=O)N[C@H](C(=O)N[C@@H](CO)C(=O)N[C@@H](CO)C(=O)N[C@@H](CCCNC(=N)N)C(=O)N1CCC[C@H]1C(=O)N[C@@H](CCC(=O)O)C(=O)N[C@@H](CO)C(=O)N[C@@H](CO)C(=O)N[C@@H](CO)C(=O)N1CCC[C@H]1C(=O)N1CCC[C@H]1C(=O)N[C@@H](C)C(=O)N[C@@H](CCCCN)C(=O)N[C@@H](CC(C)C)C(=O)N[C@@H](CO)C(=O)N1CCC[C@H]1C(=O)N[C@@H](CCCNC(=N)N)C(N)=O)C(C)C` [Compound 49] (H-PSS(Octyl)FLSPEHSRVSSRPESSSPPAKLSPR-NH2), the “Accumulated FI at 6h” value came out at 0.6 ± 0.09 g. With `CCCCCCCC(=O)NC[C@H](NC(=O)[C@H](CO)NC(=O)[C@@H]1CCCN1)C(=O)N[C@@H](Cc1ccccc1)C(=O)N[C@@H](CC(C)C)C(=O)N[C@@H](CO)C(=O)N1CCC[C@H]1C(=O)N[C@@H](CCC(=O)O)C(=O)N[C@@H](Cc1c[nH]cn1)C(=O)N[C@@H](CO)C(=O)N[C@@H](CCCNC(=N)N)C(=O)N[C@H](C(=O)N[C@@H](CO)C(=O)N[C@@H](CO)C(=O)N[C@@H](CCCNC(=N)N)C(=O)N[C@@H](CCCCN)C(=O)N[C@@H](CCC(=O)O)C(=O)N[C@@H](CO)C(=O)N[C@@H](CCCCN)C(=O)N[C@@H](CCCCN)C(=O)N1CCC[C@H]1C(=O)N1CCC[C@H]1C(=O)N[C@@H](C)C(=O)N[C@@H](CCCCN)C(=O)N[C@@H](CC(C)C)C(=O)N[C@@H](CO)C(=O)N1CCC[C@H]1C(=O)N[C@@H](CCCNC(=N)N)C(N)=O)C(C)C` [Compound 23] (H-PS[Dap](Octanoyl)FLSPEHSRVSSRKESKKPPAKLSPR-NH2), the “Effects on FI in the 0-6 h light period” value (300 nmol/kg s.c., modified protocol (FIG. 2A)) is on record as “moderate effects”. Besides, the “Effects on FI during the dark period” value (300 nmol/kg s.c.) is recorded as “significant effects”.
